Assay results published in US20230357272A1, “OCTAHYDROPYRAZINODIAZANAPHTHYRIDINE DIONE COMPOUNDS” (MEDSHINE DISCOVERY INC., priority 2020, published 2023).
Read-outs that look alike come from different tables or passages of the source.

How the values were obtained:
[1] = tested on: human colon cancer CO-04-0070 subcutaneous xenograft tumor; test: In vivo pharmacodynamic study on human colon cancer CO-04-0070 subcutaneous xenograft tumor model; parameters: species or system BALB/c nude mouse; conditions: for Tumor volume (Day 0): Day 0 (at grouping); for Tumor volume (Day 0) / Tumor volume (Day 20) / Tumor weight (Day 20): mean ± SEM, n = 8; for RTV (Day 20) / T/C (%) (Day 20) / T/Cweight / TGI (%) (Day 20) / Tumor volume (Day 20) / Tumor weight (Day 20): Day 20
Experimental: To evaluate the in vivo efficacy of the compound in the human colon cancer CO-04-0070 subcutaneous xenograft tumor BALB/c nude mouse model.
Each animal was inoculated with a CO-04-0070 FP7 tumor block with a volume of about 30 mm^3 in the right back position. When the mean tumor volume reached 151 mm^3, random grouping was used and the administration was started.
Tumor diameters were measured with vernier calipers twice a week. The calculation formula of tumor volume was: V=0.5a×b^2, wherein a and b represented the long and short diameters of the tumor, respectively.
The anti-tumor efficacy of the compounds was evaluated by TGI (%) or relative tumor proliferation rate T/C (%). Relative tumor proliferation rate T/C (%)=TRTV/CRTV×100% (TRTV: mean RTV of the treatment group; CRTV: mean RTV of the negative control group). The relative tumor volume (RTV) was calculated according to the results of tumor measurement, and the calculation formula was RTV=Vt/V0, wherein V0 was the tumor volume measured at the time of group administration (that is, D0), Vt was the tumor volume at a certain measurement, and the data of TRTV and CRTV were taken on the same day. TGI (%), reflecting the tumor growth inhibition rate.
TGI (%)=[1−(mean tumor volume at the end of administration in a treatment group−mean tumor volume at the beginning of administration in the treatment group)/(mean tumor volume at the end of treatment in vehicle control group−mean tumor volume at the beginning of treatment in vehicle control group)]×100%.
After the experiment, the tumor weight would be detected, and the percentage of T/Cweight would be calculated. Tweight and Cweight represented the tumor weight of the administration group and the vehicle control group, respectively.

[2] = Pharmacokinetic study of female BALB/c nude mice (plasma and tumor); type: in vivo; conditions: for concentration at 1 h / concentration at 4 h / concentration at 8 h: oral, read-out: Mean drug concentration; for Kp: tumor/plasma, read-out: AUC ratio = tumor AUC0-last/plasma AUC0-last
Experimental: This experiment was a pharmacokinetic study of female BALB/c nude mice after oral administration of compound 1D. The experiment was divided into three groups, which were intragastrically administered with 1, 3 and 10 mg/kg of compound 1D, respectively. Animals in each group were divided into two batches, and plasma and tumor tissue samples were collected at different time points after administration. The collection time points of the plasma samples from each group of animals were: 0.083, 0.25, 0.5, 1, 2, 4, 6 and 8 hours, respectively, and the collection time points of tumor tissue samples were 1, 4 and 8 hours, respectively. At the corresponding sample collection time point after administration, plasma was collected, and tumor tissue was dissected and weighed. The plasma was stored at −80° C., and the tumor tissue was stored in a cryopreservation tube and quickly frozen in liquid nitrogen. Cross-collected plasma samples were used to calculate the mean concentration of the corresponding time points in each group for the calculation of PK parameters.

MIA-PA-CA-2 cells = test: Anti-proliferation experiment of MIA-PA-CA-2 cells (CellTiter-Glo); type: cell-based; conditions: Homo sapiens, MIA PaCa-2, 72 h, 3 days
Experimental: DMEM culture medium, fetal bovine serum purchased from Biosera, and horse serum purchased from Gibco. CellTiter-Glo (chemiluminescence detection reagent for cell viability) reagent purchased from Promega. MIA-PA-CA-2 cell line purchased from Nanjing CoBioer Biotechnology Co., Ltd. EnVision multi-label analyzer (PerkinElmer).
MIA-PA-CA-2 cells were seeded in a white 96-well plate with 80 μL of cell suspension per well, which contained 1000 MIA-PA-CA-2 cells. The cell plate was incubated overnight in a carbon dioxide incubator.
The compounds to be tested were diluted 5-fold with a row gun to the eighth concentration, that is, from 2 mM to 26 nM, and a double-duplication experiment was set up. 78 μL of culture medium was added to a middle plate, and then 2 μL of gradient diluted compound per well was transferred to the middle plate according to the corresponding position. After being thoroughly mixed, 20 μL per well was transferred to the cell plate. The concentration range of the compound transferred to the cell plate was 10 μM to 0.13 nM. The cell plate was placed in the carbon dioxide incubator for 3 days. Another cell plate was prepared, and the signal value was read as the maximum value (Max value in the equation below) on the day of administration to participate in data analysis. 25 μL of cell viability chemiluminescence detection reagent was added to each well of the cell plate, and incubated at room temperature for 10 minutes to stabilize the luminescence signal. A multi-label analyzer was used for reading.
Using the equation (Sample−Min)/(Max−Min)*100% to convert the raw data into inhibition rate, and the value of IC50 might be obtained by curve fitting with four parameters (obtained by “log (inhibitor)/response—Variable scope” mode in GraphPad Prism software). Table 2 provides the inhibitory activity of the compounds of the present disclosure on the proliferation of MIA-PA-CA-2 cells.

[3] = female, BALB/c nude, mouse, plasma, 1 mg/kg intragastric
[4] = female, BALB/c nude, mouse, plasma, 3 mg/kg intragastric
[5] = female, BALB/c nude, mouse, plasma, 10 mg/kg intragastric
[6] = female, BALB/c nude, mouse, tumor, 1 mg/kg intragastric
[7] = female, BALB/c nude, mouse, tumor, 3 mg/kg intragastric
[8] = female, BALB/c nude, mouse, tumor, 10 mg/kg intragastric
[9] = female, BALB/c nude, mouse, po, plasma, 1 mg/kg intragastric
[10] = female, BALB/c nude, mouse, po, plasma, 3 mg/kg intragastric
[11] = female, BALB/c nude, mouse, po, plasma, 10 mg/kg intragastric
[12] = female, BALB/c nude, mouse, po, tumor, 3 mg/kg intragastric
[13] = female, BALB/c nude, mouse, po, tumor, 10 mg/kg intragastric

C=CC(=O)N1CCN2c3c(c(=O)n(-c4c(C)ccnc4C(C)C)c4c(=O)n(-c5c(N)c(Cl)cc(Cl)c5F)c(C(F)(F)F)cc34)OCC[C@H]2C1 [Compound 1D]
Tumor volume (Day 0) ([1]; 3 mg/kg PO QD × 3 weeks): 151 mm^3 | RTV (Day 20) ([1]; 3 mg/kg PO QD × 3 weeks): 5.32 | T/C (%) (Day 20) ([1]; 3 mg/kg PO QD × 3 weeks): 58.0% | T/Cweight ([1]; 3 mg/kg PO QD × 3 weeks): 61.6% | TGI (%) (Day 20) ([1]; 3 mg/kg PO QD × 3 weeks): 45.4% | Tumor volume (Day 20) ([1]; 3 mg/kg PO QD × 3 weeks): 788 mm^3 | Tumor weight (Day 20) ([1]; 3 mg/kg PO QD × 3 weeks): 0.832 ± 0.102 g | Tumor volume (Day 0) ([1]; 10 mg/kg PO QD × 3 weeks): 151 mm^3 | RTV (Day 20) ([1]; 10 mg/kg PO QD × 3 weeks): 2.43 | T/C (%) (Day 20) ([1]; 10 mg/kg PO QD × 3 weeks): 26.5% | T/Cweight ([1]; 10 mg/kg PO QD × 3 weeks): 30.1% | TGI (%) (Day 20) ([1]; 10 mg/kg PO QD × 3 weeks): 80.5% | Tumor volume (Day 20) ([1]; 10 mg/kg PO QD × 3 weeks): 379 mm^3 | Tumor weight (Day 20) ([1]; 10 mg/kg PO QD × 3 weeks): 0.406 ± 0.095 g | Tumor volume (Day 0) ([1]; 30 mg/kg PO QD × 3 weeks): 151 mm^3 | RTV (Day 20) ([1]; 30 mg/kg PO QD × 3 weeks): 1.02 | T/C (%) (Day 20) ([1]; 30 mg/kg PO QD × 3 weeks): 11.1% | T/Cweight ([1]; 30 mg/kg PO QD × 3 weeks): 12.0% | TGI (%) (Day 20) ([1]; 30 mg/kg PO QD × 3 weeks): 99.9% | Tumor volume (Day 20) ([1]; 30 mg/kg PO QD × 3 weeks): 152 mm^3 | Tumor weight (Day 20) ([1]; 30 mg/kg PO QD × 3 weeks): 0.162 ± 0.023 g | concentration at 1 h [2, 3]: 22.5 nM | concentration at 4 h [2, 3]: 3.58 nM | concentration at 8 h [2, 3]: 1.22 nM | concentration at 1 h [2, 4]: 157 nM | concentration at 4 h [2, 4]: 11.5 nM | concentration at 8 h [2, 4]: 4.13 nM | concentration at 1 h [2, 5]: 285 nM | concentration at 4 h [2, 5]: 54.8 nM | concentration at 8 h [2, 5]: 30.6 nM | concentration at 1 h [2, 6]: 10.4 nM | concentration at 4 h [2, 6]: 2.04 nM | concentration at 1 h [2, 7]: 136 nM | concentration at 4 h [2, 7]: 9.78 nM | concentration at 8 h [2, 7]: 2.78 nM | concentration at 1 h [2, 8]: 203 nM | concentration at 4 h [2, 8]: 37.9 nM | concentration at 8 h [2, 8]: 20.8 nM | AUC(0-t) [2, 9]: 0.0544 µM·h | Tmax [2, 9]: 0.25 h | half-life [2, 9]: 2.57 h | Cmax ([2]; female, BALB/c nude, mouse, po, plasma, 1 mg/kg intragastric, read-out: Cmax): 40.8 nM | AUC(0-t) [2, 10]: 0.287 µM·h | Tmax [2, 10]: 0.5 h | half-life [2, 10]: 2.2 h | Cmax ([2]; female, BALB/c nude, mouse, po, plasma, 3 mg/kg intragastric, read-out: Cmax): 191 nM | AUC(0-t) [2, 11]: 0.84 µM·h | Tmax [2, 11]: 0.25 h | half-life [2, 11]: 1.99 h | Cmax ([2]; female, BALB/c nude, mouse, po, plasma, 10 mg/kg intragastric, read-out: Cmax): 348 nM | Tmax [2, 12]: 1 h | half-life [2, 12]: 1.28 h | Tmax [2, 13]: 1 h | half-life [2, 13]: 2.19 h | Kp ([2]; female, BALB/c nude, mouse, po, 3 mg/kg intragastric): 0.815 | Kp ([2]; female, BALB/c nude, mouse, po, 10 mg/kg intragastric): 0.608 | Tlast ([2]; plasma, 1 mg/kg intragastric): 8.00 h | Tlast ([2]; plasma, 3 mg/kg intragastric): 8.00 h | Tlast ([2]; plasma, 10 mg/kg intragastric): 8.00 h | AUC0-last ([2]; tumor, 3 mg/kg intragastric): 234 nmol·h/kg | Cmax ([2]; tumor, 3 mg/kg intragastric): 136 nmol/kg | Tlast ([2]; tumor, 3 mg/kg intragastric): 8.00 h | AUC0-last ([2]; tumor, 10 mg/kg intragastric): 511 nmol·h/kg | Cmax ([2]; tumor, 10 mg/kg intragastric): 203 nmol/kg | Tlast ([2]; tumor, 10 mg/kg intragastric): 8.00 h | IC50 (MIA-PA-CA-2 cells): 8 nM
